From US7025067B2, “Activated charcoal filter for effectively reducing p-benzosemiquinone from the mainstream cigarette smoke” (Council of Scientific and Industrial Research, priority 2001, dated 2006)
Where two headings read alike, the source gives them in different places.

## p-benzosemiquinone [p-BSQ]
Aqueous solution at pH 7.4
  half-life of p-BSQ: about 1.5 hours
Solid state at the room temperature
  half-life of p-BSQ: 48 h
